We go through 24 compounds from US10696648B2, “Inhibitors of indoleamine 2,3-dioxygenase and methods of their use” (BRISTOL-MYERS SQUIBB COMPANY, priority 2016, dated 2020).

SMILES strings stand for the structures. Where only a bound is given, the exact number is not on record here.

T1 sequence (P14902 whole entry): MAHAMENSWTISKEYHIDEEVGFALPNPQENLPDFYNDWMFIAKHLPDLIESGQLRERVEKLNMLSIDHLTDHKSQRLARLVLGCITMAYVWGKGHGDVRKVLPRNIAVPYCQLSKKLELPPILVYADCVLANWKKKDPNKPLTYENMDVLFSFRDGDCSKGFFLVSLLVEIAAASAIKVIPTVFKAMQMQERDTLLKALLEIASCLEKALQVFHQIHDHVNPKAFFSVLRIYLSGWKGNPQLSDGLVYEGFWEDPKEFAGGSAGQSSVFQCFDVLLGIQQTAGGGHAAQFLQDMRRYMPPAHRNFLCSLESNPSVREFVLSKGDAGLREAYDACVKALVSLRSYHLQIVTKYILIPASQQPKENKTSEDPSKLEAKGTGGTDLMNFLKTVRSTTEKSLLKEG

This assay addresses T1, human IDO1 (Homo sapiens, UniProt P14902).
T1 construct: expressed in transfected cells
Description: HEK293 cells stably expressing human IDO1, IDO inhibition assay (kynurenine, Ehrlich reagent). Conditions: 20 hours incubation, absorbance at 490 nm, read-out: HEK Human IDO-1 Bio Activity (IDO IC50). The class given is cell-based. The procedure: HEK293 cells were transfected with a pCDNA-based mammalian expression vector harboring human IDO1 cDNA (NM 002164.2) by electroporation. They were cultured in medium (DMEM with 10% FBS) containing 1 mg/ml G418 for two weeks. Clones of HEK293 cells that stably expressed human IDO1 protein were selected and expanded for IDO inhibition assay. The human IDO1/HEK293 cells were seeded at 10,000 cells per 50 μL per well with RPMI/phenol red free media contains 10% FBS in a 384-well black wall clear bottom tissue culture plate (Matrix Technologies LLC) 100 nL of certain concentration of compound was then added to each well using ECHO liquid handling systems. The cells were incubated for 20 hours in 37° C. incubator with 5% CO2. The compound treatments were stopped by adding trichloroacetic acid (Sigma-Aldrich) to a final concentration at 0.2%. The cell plate was further incubated at 50° C. for 30 minute. The equal volume supernatant (20 μL) and 0.2% (w/v) Ehrlich reagent (4-dimethylaminobenzaldehyde, Sigma-Aldrich) in glacial acetic acid were mixed in a new clear bottom 384-well plate. This plate was then incubated at room temperature for 30 minute. The absorbance at 490 nm was measured on Envision plate reader. Compound IC50 values were calculated using the counts of 500 nM of a reference standard treatment as one hundred percent inhibition, and counts of no compound but DMSO treatment as zero percent inhibition.
One may read the IC50 as the midpoint of a concentration-inhibition curve. `O=C(Nc1ccc(Cl)cc1)N(Cc1ccccc1)[C@H]1CC[C@@H](c2ccnc3ccc(F)cc32)CC1` [Example 23, 1-benzyl-3-(4-chlorophenyl)-1-(cis-4-(6-fluoroquinolin-4-yl)cyclohexyl)urea]: the IC50 was < 1000 nM.

Regarding `COc1ccc(CN(C(=O)Nc2ccc(C(F)(F)F)cc2)[C@H]2CC[C@H](c3ccccc3)CC2)cc1` [Example 12, 1-(4-methoxybenzyl)-1-(trans-4-phenylcyclohexyl)-3-(4-(trifluoromethyl)phenyl)urea], the IC50 was < 100 nM.

In the case of `CCN(C(=O)N[C@@H](C)c1ccc(Cl)cc1)[C@H]1CC[C@H](c2ccnc3ccc(F)cc32)CC1` [Example 37, 3-((S)-1-(4-chlorophenyl)ethyl)-1-ethyl-1-((1r,4S)-4-(6-fluoroquinolin-4-yl)cyclohexyl)urea], the IC50 is < 1000 nM.

In the case of `COc1ccc(CN(C(=O)NCc2ccc(F)cc2)C2CCC(c3ccccc3)CC2)cc1` (stereo not drawn) [Example 32, 3-(4-fluorobenzyl)-1-(4-methoxybenzyl)-1-((1r,4r)-4-phenylcyclohexyl)urea], the IC50 is < 10000 nM.

`CCOc1ccc(NC(=O)N(Cc2ccc(OC)cc2)[C@H]2CC[C@H](c3ccccc3)CC2)cc1` [Example 13, 3-(4-ethoxyphenyl)-1-(4-methoxybenzyl)-1-(trans-4-phenylcyclohexyl)urea]: the IC50 is < 1000 nM.

Take `CN(C(=O)Nc1ccc(Cl)cc1)[C@H]1CC[C@@H](c2ccnc3ccc(F)cc32)CC1` [Example 15, 3-(4-chlorophenyl)-1-(cis-4-(6-fluoroquinolin-4-yl)cyclohexyl)-1-methylurea]: the IC50 was < 1000 nM.

Turning to `CCCCc1ccc(NC(=O)N(C)C2CCN(c3ccnc4ccc(F)cc34)CC2)cc1` [Example 2, 3-(4-Butylphenyl)-1-(1-(6-fluoroquinolin-4-yl)piperidin-4-yl)-1-methylurea], the IC50 is < 100 nM.

With `CN(C(=O)Nc1ccc(Cl)cc1)[C@H]1CC[C@H](c2ccnc3ccc(F)cc32)CC1` [Example 14, 3-(4-Chlorophenyl)-1-(trans-4-(6-fluoroquinolin-4-yl)cyclohexyl)-1-methylurea], the IC50 was < 100 nM.

Take `O=C(Nc1ccc(F)cc1)N(Cc1ccccc1)[C@H]1CC[C@H](c2ccnc3ccc(F)cc32)CC1` [Example 19, 1-benzyl-3-(4-fluorophenyl)-1-(trans-4-(6-fluoroquinolin-4-yl)cyclohexyl)urea]: the IC50 is < 100 nM.

`CN(C(=O)Nc1ccc(Cl)cc1)C1CCN(c2ccnc3ccc(F)cc23)CC1` [Example 1, 3-(4-Chlorophenyl)-1-(1-(6-fluoroquinolin-4-yl)piperidin-4-yl)-1-methylurea]: the IC50 was < 1000 nM.

For `COc1ccc(CN(C(=O)Nc2ccc(OC(F)(F)F)cc2)[C@H]2CC[C@H](c3ccccc3)CC2)cc1` [Example 10, 1-(4-methoxybenzyl)-1-(trans-4-phenylcyclohexyl)-3-(4-(trifluoromethoxy)phenyl)urea], the IC50 is < 1000 nM.

Regarding `C[C@H](NC(=O)N[C@H]1CC[C@@H](c2ccnc3ccc(F)cc32)CC1)c1ccc(Cl)cc1` [Example 35, 1-((S)-1-(4-chlorophenyl)ethyl)-3-((1s,4R)-4-(6-fluoroquinolin-4-yl)cyclohexyl)urea], the IC50 is < 1000 nM.

On to `O=C(O)Cc1ccc(CN(C(=O)Nc2ccc(Cl)cc2)[C@H]2CC[C@H](c3ccnc4ccc(F)cc43)CC2)cc1` [Example 25, 2-(4-((3-(4-chlorophenyl)-1-(trans-4-(6-fluoroquinolin-4-yl)cyclohexyl)ureido)methyl)phenyl)acetic Acid], for which the IC50 is < 1000 nM.

Take `O=C(O)Cc1ccc(CN(C(=O)Nc2ccc(Cl)cc2F)[C@H]2CC[C@H](c3ccnc4ccc(F)cc43)CC2)cc1` [Example 26, 2-(4-((3-(4-chloro-2-fluorophenyl)-1-(trans-4-(6-fluoroquinolin-4-yl)cyclohexyl)ureido)methyl)phenyl) acetic acid]: the IC50 was < 100 nM.

`O=C(Nc1ccc(Cl)cc1F)N(Cc1ccccc1)[C@H]1CC[C@@H](c2ccnc3ccc(F)cc32)CC1` [Example 24, 1-benzyl-3-(4-chloro-2-fluorophenyl)-1-(cis-4-(6-fluoroquinolin-4-yl)cyclohexyl)urea]: the IC50 is < 100 nM.

Consider `O=C(O)Cc1ccc(CN(C(=O)Nc2ccc(Cl)cc2)[C@H]2CC[C@@H](c3ccnc4ccc(F)cc43)CC2)cc1` [Example 28, 2-(4-((3-(4-chlorophenyl)-1-(cis-4-(6-fluoroquinolin-4-yl)cyclohexyl)ureido)methyl)phenyl)acetic acid], for which the IC50 was < 10000 nM.

With `COc1ccc(CN(C(=O)NC2CCCCC2)[C@H]2CC[C@H](c3ccccc3)CC2)cc1` [Example 43, 3-cyclohexyl-1-(4-methoxybenzyl)-1-((1r,4r)-4-phenylcyclohexyl)urea], the IC50 was < 100 nM.

Turning to `Cc1ccc(NC(=O)N(Cc2ccccc2)[C@H]2CC[C@H](c3ccnc4ccc(F)cc43)CC2)cc1` [Example 20, 1-benzyl-1-(trans-4-(6-fluoroquinolin-4-yl)cyclohexyl)-3-(p-tolyl)urea], the IC50 is < 1000 nM.

For the compound `N#Cc1ccc(NC(=O)N(Cc2ccccc2)[C@H]2CC[C@H](c3ccnc4ccc(F)cc43)CC2)cc1` [Example 22, 1-benzyl-3-(4-cyanophenyl)-1-(trans-4-(6-fluoroquinolin-4-yl)cyclohexyl)urea], the IC50 was < 10000 nM.

For `COc1ccc(CN(C(=O)Nc2ccc(Cl)cc2)[C@H]2CC[C@H](c3ccccc3)CC2)cc1` [Example 4, 3-(4-Chlorophenyl)-1-(4-methoxybenzyl)-1-((1r,4r)-4-phenylcyclohexyl)urea], the IC50 was < 100 nM.

As for `O=C(Nc1ccc(Cl)cc1)N(Cc1ccccc1)[C@H]1CC[C@H](c2ccnc3ccc(F)cc32)CC1` [Example 18, 1-benzyl-3-(4-chlorophenyl)-1-(trans-4-(6-fluoroquinolin-4-yl)cyclohexyl)urea], the IC50 was < 100 nM.

Regarding `COc1ccc(CN(C(=O)Nc2ccc(F)c(F)c2)[C@H]2CC[C@H](c3ccccc3)CC2)cc1` [Example 8, 3-(3,4-difluorophenyl)-1-(4-methoxybenzyl)-1-(trans-4-phenylcyclohexyl)urea], the IC50 was < 1000 nM.

Take `CCN(C(=O)Nc1ccc(Cl)cc1)[C@H]1CC[C@H](c2ccnc3ccc(F)cc32)CC1` [Example 16, 3-(4-Chlorophenyl)-1-ethyl-1-(trans-4-(6-fluoroquinolin-4-yl)cyclohexyl)urea]: the IC50 is < 100 nM.

`COc1ccc(CN(C(=O)NC2CC2)C2CCC(c3ccccc3)CC2)cc1` (stereo not drawn) [Example 45, 3-cyclopropyl-1-(4-methoxybenzyl)-1-((1r,4r)-4-phenylcyclo-hexyl)urea]: the IC50 was < 1000 nM.
